According to patent US20250011300A1, “PIPERAZINYLSULFONYLARYL COMPOUNDS FOR TREATMENT OF BACTERIAL INFECTIONS” (Hoffmann-La Roche Inc., priority 2021, published 2025):
Converted amounts (≈) assume the structure as drawn.

Columns and labels:
E. coli (ATCC 25922) = experiment: Minimal Inhibitory Concentration (MIC) assay, E. coli; type: cell-based; details: Escherichia coli, ATCC25922; E. coli ATCC 25922, CAMHB, 20 hours at 35° C.; read-out: MIC E. coli ATCC 25922
In short: (§1)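 Broth microdilution in cation-adjusted Mueller Hinton broth, inoculum 5×10^5 CFU/mL, compounds 2-fold serially diluted from 10 mM DMSO stocks. Plates incubated 20 hours at 35° C in ambient air; MIC (μg/mL) is the lowest concentration preventing visible growth.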

[1] = target: Escherichia coli LpxH (UDP-2,3-diacylglucosamine hydrolase) (Escherichia coli (strain K12), UniProt P43341); experiment: 50% Inhibitory Concentration (IC50) to LpxH, UMP/CMP-Glo Glycosyltransferase Assay kit; type: biochemical
Escherichia coli LpxH (UDP-2,3-diacylglucosamine hydrolase), sequence (P43341 whole entry): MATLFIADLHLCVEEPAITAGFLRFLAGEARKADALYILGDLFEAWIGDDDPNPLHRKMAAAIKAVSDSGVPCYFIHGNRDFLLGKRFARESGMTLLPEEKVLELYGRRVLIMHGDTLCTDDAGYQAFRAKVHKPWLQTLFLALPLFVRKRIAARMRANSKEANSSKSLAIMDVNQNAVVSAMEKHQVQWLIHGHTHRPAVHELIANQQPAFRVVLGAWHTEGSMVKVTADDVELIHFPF
In short: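 LpxH hydrolysis of UDP-2,3-diacylglucosamine to lipid X and UMP; UMP produced is converted to ATP and quantified by luciferase luminescence (UMP/CMP-Glo). Inhibition taken from reduced light output.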

[2] = test system: K. pneumonia (ATCC 43816); experiment: Minimal Inhibitory Concentration (MIC) assay, K. pneumonia; type: cell-based; details: Klebsiella pneumoniae; K. pneumoniae ATCC43816, CAMHB, 20 hours at 35° C.; read-out: MIC K. pneumoniae ATCC43816
In short: as §1

SMILES	MIC (E. coli (ATCC 25922)) [µg/mL]	IC50 [1] [nM]	MIC [2] [µg/mL]
N[C@@H]1CC(=O)N(c2ccc(S(=O)(=O)N3CCN(c4cc(C(F)(F)[C@@H]5CCCNC5)cc(Cl)n4)CC3)cc2)C1 [Example 107, (4R)-4-amino-1-[4-[4-[6-chloro-4-[difluoro-[(3R)-3-piperidyl]methyl]-2-pyridyl]piperazin-1-yl]sulfonylphenyl]pyrrolidin-2-one]	2.85 (≈ 5.01 µM)	19.3	5.7 (≈ 10 µM)
N[C@@H]1CC(=O)N(c2ccc(S(=O)(=O)N3CCN(c4cc(C(F)(F)[C@H]5CCCNC5)cc(Cl)n4)CC3)cc2)C1 [Example 108, (4R)-4-amino-1-[4-[4-[6-chloro-4-[difluoro-[(3S)-3-piperidyl]methyl]-2-pyridyl]piperazin-1-yl]sulfonylphenyl]pyrrolidin-2-one]	4.98 (≈ 8.75 µM)	35.1	4.98 (≈ 8.75 µM)
N[C@@H]1CC(=O)N(c2ccc(S(=O)(=O)N3CCN(c4cc(C(F)(F)C5CNC5)cc(Cl)n4)CC3)cc2)C1 [Example 109, (4R)-4-amino-1-[4-[4-[4-[azetidin-3-yl(difluoro)methyl]-6-chloro-2-pyridyl]piperazin-1-yl]sulfonylphenyl]pyrrolidin-2-one]	16.4 (≈ 30.3 µM)	68.4	16.4 (≈ 30.3 µM)
O=C1OC(CO)CN1c1ccc(S(=O)(=O)N2CCN(c3cc(C(F)(F)[C@@H]4CNCCO4)cc(Cl)n3)CC2)cc1 (stereo partly drawn) [Example 110, 3-[4-[4-[6-Chloro-4-[difluoro-[(2S)-morpholin-2-yl]methyl]-2-pyridyl]piperazin-1-yl]sulfonylphenyl]-5-(hydroxymethyl)oxazolidin-2-one]	0.99 (≈ 1.68 µM)	3.4	0.99 (≈ 1.68 µM)
NC(=O)[C@H]1CC[C@H](C(F)(F)c2cc(Cl)nc(N3CCN(S(=O)(=O)c4ccc(N5C[C@H](N)CC5=O)cc4)CC3)c2)CC1 [Example 120, Trans-4-[[2-[4-[4-[(4R)-4-amino-2-oxo-pyrrolidin-1-yl]phenyl]sulfonylpiperazin-1-yl]-6-chloro-4-pyridyl]-difluoro-methyl]cyclohexanecarboxamide]	0.96 (≈ 1.57 µM)	< 3.27	0.48 (≈ 0.785 µM)
